In patent US11571411B2, “Use of a bisamide derivative of malonic acid for treating allergic and other diseases in humans and animals” (PHARMENTERPRISES ALLERGY LLC, priority 2018, dated 2023):

Tested on: histamine-induced nasal congestion model
Test: Histamine-induced nasal congestion model in dogs, oral administration
Assay type: in vivo, Beagle dogs
Protocol: A histamine-induced nasal congestion model in dogs was performed according to the standard procedure [Tiniakov R. L., Tiniakova O. P., McLeod R. L., Hey J. A., Yeates D. B. Canine model of nasal congestion and allergic rhinitis//J Appl Physiol. 2003. V.94(5). P.1821-1828]. Beagle dogs were injected in the nasal cavity with a 5% histamine solution in a volume of 250 μl/nostril. The volume of the nasal cavity of the right and left nostrils was measured using a rhinometer before and 5, 10, 15, 20, 30, 40, 50 and 60 minutes after administration of histamine. Three experiments were performed, in which Compound I was administered orally once at different times: 1) 30 minutes before administration of histamine; 2) 1 hour before administration of histamine; and 3) 6 hours before administration of histamine, and one experiment was performed, in which Compound I was administered orally once daily for 14 days, the last administration was carried out 1 hour before administration of histamine.

[1] = oral 6 hours before histamine, 0.54 mg/kg, 40 minutes after histamine
[2] = oral 6 hours before histamine, 0.54 mg/kg, 50 minutes after histamine
[3] = oral 6 hours before histamine, 0.54 mg/kg, 60 minutes after histamine
[4] = oral 6 hours before histamine, 0.54 mg/kg, before histamine administration
[5] = oral for 14 days, 0.13 mg/kg, 5 minutes after histamine
[6] = oral for 14 days, 0.13 mg/kg, 10 minutes after histamine
[7] = oral for 14 days, 0.13 mg/kg, 15 minutes after histamine
[8] = oral for 14 days, 0.13 mg/kg, 20 minutes after histamine
[9] = oral for 14 days, 0.13 mg/kg, 30 minutes after histamine
[10] = oral for 14 days, 0.13 mg/kg, 40 minutes after histamine
[11] = oral for 14 days, 0.13 mg/kg, before histamine administration
[12] = oral for 14 days, 0.27 mg/kg, 5 minutes after histamine
[13] = oral for 14 days, 0.27 mg/kg, 10 minutes after histamine
[14] = oral for 14 days, 0.27 mg/kg, 15 minutes after histamine
[15] = oral for 14 days, 0.27 mg/kg, 20 minutes after histamine
[16] = oral for 14 days, 0.27 mg/kg, 30 minutes after histamine
[17] = oral for 14 days, 0.27 mg/kg, 40 minutes after histamine
[18] = oral for 14 days, 0.27 mg/kg, before histamine administration
[19] = oral for 14 days, 0.54 mg/kg, 5 minutes after histamine
[20] = oral for 14 days, 0.54 mg/kg, 10 minutes after histamine
[21] = oral for 14 days, 0.54 mg/kg, 15 minutes after histamine
[22] = oral for 14 days, 0.54 mg/kg, 20 minutes after histamine
[23] = oral for 14 days, 0.54 mg/kg, before histamine administration
[24] = oral once 30 minutes before histamine, 0.005 mg/kg, 5 minutes after histamine
[25] = oral once 30 minutes before histamine, 0.005 mg/kg, 10 minutes after histamine
[26] = oral once 30 minutes before histamine, 0.005 mg/kg, 15 minutes after histamine
[27] = oral once 30 minutes before histamine, 0.005 mg/kg, 20 minutes after histamine
[28] = oral once 30 minutes before histamine, 0.005 mg/kg, 30 minutes after histamine
[29] = oral once 30 minutes before histamine, 0.005 mg/kg, 40 minutes after histamine
[30] = oral once 30 minutes before histamine, 0.005 mg/kg, 50 minutes after histamine
[31] = oral once 30 minutes before histamine, 0.005 mg/kg, 60 minutes after histamine
[32] = oral once 30 minutes before histamine, 0.005 mg/kg, before histamine administration
[33] = oral once 30 minutes before histamine, 0.05 mg/kg, 5 minutes after histamine
[34] = oral once 30 minutes before histamine, 0.05 mg/kg, 10 minutes after histamine
[35] = oral once 30 minutes before histamine, 0.05 mg/kg, 15 minutes after histamine
[36] = oral once 30 minutes before histamine, 0.05 mg/kg, 20 minutes after histamine
[37] = oral once 30 minutes before histamine, 0.05 mg/kg, 30 minutes after histamine
[38] = oral once 30 minutes before histamine, 0.05 mg/kg, 40 minutes after histamine
[39] = oral once 30 minutes before histamine, 0.05 mg/kg, 50 minutes after histamine
[40] = oral once 30 minutes before histamine, 0.05 mg/kg, 60 minutes after histamine
[41] = oral once 30 minutes before histamine, 0.05 mg/kg, before histamine administration
[42] = oral once 30 minutes before histamine, 0.54 mg/kg, 5 minutes after histamine
[43] = oral once 30 minutes before histamine, 0.54 mg/kg, 10 minutes after histamine
[44] = oral once 30 minutes before histamine, 0.54 mg/kg, 15 minutes after histamine
[45] = oral once 30 minutes before histamine, 0.54 mg/kg, 20 minutes after histamine
[46] = oral once 30 minutes before histamine, 0.54 mg/kg, 30 minutes after histamine
[47] = oral once 30 minutes before histamine, 0.54 mg/kg, 40 minutes after histamine
[48] = oral once 30 minutes before histamine, 0.54 mg/kg, 50 minutes after histamine
[49] = oral once 30 minutes before histamine, 0.54 mg/kg, 60 minutes after histamine
[50] = oral once 30 minutes before histamine, 0.54 mg/kg, before histamine administration

O=C(CC(=O)NCCc1cnc[nH]1)NCCc1cnc[nH]1 [Compound I, N,N′-bis(2-(1H-imidazol-5-yl)ethyl)malonamide]
Volume of the nasal cavity, left nostril [1]: 3.5 ± 0.1$ cm^3
Volume of the nasal cavity, right nostril [1]: 3.5 ± 0.1$ cm^3
Volume of the nasal cavity, left nostril [2]: 2.9 ± 0.1$ cm^3
Volume of the nasal cavity, right nostril [2]: 2.9 ± 0.2$ cm^3
Volume of the nasal cavity, left nostril [3]: 2.9 ± 0.1$ cm^3
Volume of the nasal cavity, right nostril [3]: 3.0 ± 0.1$ cm^3
Volume of the nasal cavity, left nostril [4]: 4.1 ± 0.2 cm^3
Volume of the nasal cavity, right nostril [4]: 4.1 ± 0.2 cm^3
Volume of the nasal cavity, left nostril [5]: 2.7 ± 0.2$ cm^3
Volume of the nasal cavity, right nostril [5]: 2.7 ± 0.2$ cm^3
Volume of the nasal cavity, left nostril [6]: 3.2 ± 0.2*$ cm^3
Volume of the nasal cavity, right nostril [6]: 3.3 ± 0.2*$ cm^3
Volume of the nasal cavity, left nostril [7]: 2.5 ± 0.2*$ cm^3
Volume of the nasal cavity, right nostril [7]: 2.5 ± 0.1*$ cm^3
Volume of the nasal cavity, left nostril [8]: 2.4 ± 0.2*$ cm^3
Volume of the nasal cavity, right nostril [8]: 2.4 ± 0.2*$ cm^3
Volume of the nasal cavity, left nostril [9]: 3.2 ± 0.2*$ cm^3
Volume of the nasal cavity, right nostril [9]: 3.2 ± 0.2*$ cm^3
Volume of the nasal cavity, left nostril [10]: 3.6 ± 0.2*$ cm^3
Volume of the nasal cavity, right nostril [10]: 3.6 ± 0.2$ cm^3
Volume of the nasal cavity, left nostril [11]: 4.5 ± 0.1 cm^3
Volume of the nasal cavity, right nostril [11]: 4.5 ± 0.1 cm^3
Volume of the nasal cavity, left nostril [12]: 2.8 ± 0.2$ cm^3
Volume of the nasal cavity, right nostril [12]: 2.7 ± 0.2$ cm^3
Volume of the nasal cavity, left nostril [13]: 3.6 ± 0.2*$ cm^3
Volume of the nasal cavity, right nostril [13]: 3.6 ± 0.2*$ cm^3
Volume of the nasal cavity, left nostril [14]: 2.8 ± 0.3*$ cm^3
Volume of the nasal cavity, right nostril [14]: 2.8 ± 0.2*$ cm^3
Volume of the nasal cavity, left nostril [15]: 2.7 ± 0.1*$ cm^3
Volume of the nasal cavity, right nostril [15]: 2.7 ± 0.2*$ cm^3
Volume of the nasal cavity, left nostril [16]: 3.3 ± 0.2*$ cm^3
Volume of the nasal cavity, right nostril [16]: 3.3 ± 0.1*$ cm^3
Volume of the nasal cavity, left nostril [17]: 3.8 ± 0.2*$ cm^3
Volume of the nasal cavity, right nostril [17]: 3.8 ± 0.2*$ cm^3
Volume of the nasal cavity, left nostril [18]: 4.5 ± 0.2 cm^3
Volume of the nasal cavity, right nostril [18]: 4.5 ± 0.1 cm^3
Volume of the nasal cavity, left nostril [19]: 3.1 ± 0.3$ cm^3
Volume of the nasal cavity, right nostril [19]: 2.7 ± 0.2$ cm^3
Volume of the nasal cavity, left nostril [20]: 3.4 ± 0.2*$ cm^3
Volume of the nasal cavity, right nostril [20]: 3.4 ± 0.1*$ cm^3
Volume of the nasal cavity, left nostril [21]: 2.6 ± 0.1*$ cm^3
Volume of the nasal cavity, right nostril [21]: 2.6 ± 0.1*$ cm^3
Volume of the nasal cavity, left nostril [22]: 2.5 ± 0.2*$ cm^3
Volume of the nasal cavity, right nostril [22]: 2.5 ± 0.2*$ cm^3
Volume of the nasal cavity, left nostril [23]: 4.4 ± 0.1 cm^3
Volume of the nasal cavity, right nostril [23]: 4.5 ± 0.1 cm^3
Volume of the nasal cavity, left nostril [24]: 3.5 ± 0.2$ cm^3
Volume of the nasal cavity, right nostril [24]: 3.4 ± 0.1$ cm^3
Volume of the nasal cavity, left nostril [25]: 2.6 ± 0.2$ cm^3
Volume of the nasal cavity, right nostril [25]: 2.5 ± 0.2$ cm^3
Volume of the nasal cavity, left nostril [26]: 2.2 ± 0.2$^ cm^3
Volume of the nasal cavity, right nostril [26]: 2.1 ± 0.2$^ cm^3
Volume of the nasal cavity, left nostril [27]: 1.9 ± 0.3 cm^3
Volume of the nasal cavity, right nostril [27]: 2.0 ± 0.2$^ cm^3
Volume of the nasal cavity, left nostril [28]: 2.5 ± 0.1&$ cm^3
Volume of the nasal cavity, right nostril [28]: 2.8 ± 0.2&$ cm^3
Volume of the nasal cavity, left nostril [29]: 3.9 ± 0.1& cm^3
Volume of the nasal cavity, right nostril [29]: 3.8 ± 0.2& cm^3
Volume of the nasal cavity, left nostril [30]: 3.9 ± 0.1& cm^3
Volume of the nasal cavity, right nostril [30]: 4.0 ± 0.2& cm^3
Volume of the nasal cavity, left nostril [31]: 4.0 ± 0.1 cm^3
Volume of the nasal cavity, right nostril [31]: 3.5 ± 0.1$ cm^3
Volume of the nasal cavity, left nostril [32]: 4.3 ± 0.3 cm^3
Volume of the nasal cavity, right nostril [32]: 4.6 ± 0.3 cm^3
Volume of the nasal cavity, left nostril [33]: 3.4 ± 0.1$ cm^3
Volume of the nasal cavity, right nostril [33]: 3.3 ± 0.2$ cm^3
Volume of the nasal cavity, left nostril [34]: 2.5 ± 0.1$ cm^3
Volume of the nasal cavity, right nostril [34]: 2.4 ± 0.2$ cm^3
Volume of the nasal cavity, left nostril [35]: 2.8 ± 0.1&$ cm^3
Volume of the nasal cavity, right nostril [35]: 2.6 ± 0.2&$ cm^3
Volume of the nasal cavity, left nostril [36]: 3.3 ± 0.1&$ cm^3
Volume of the nasal cavity, right nostril [36]: 3.3 ± 0.3&$ cm^3
Volume of the nasal cavity, left nostril [37]: 4.1 ± 0.1& cm^3
Volume of the nasal cavity, right nostril [37]: 3.8 ± 0.1& cm^3
Volume of the nasal cavity, left nostril [38]: 4.2 ± 0.3& cm^3
Volume of the nasal cavity, right nostril [38]: 4.2 ± 0.2& cm^3
Volume of the nasal cavity, left nostril [39]: 4.2 ± 0.1& cm^3
Volume of the nasal cavity, right nostril [39]: 4.5 ± 0.1& cm^3
Volume of the nasal cavity, left nostril [40]: 4.3 ± 0.1 cm^3
Volume of the nasal cavity, right nostril [40]: 4.5 ± 0.3 cm^3
Volume of the nasal cavity, left nostril [41]: 4.3 ± 0.2 cm^3
Volume of the nasal cavity, right nostril [41]: 4.2 ± 0.2 cm^3
Volume of the nasal cavity, left nostril [42]: 2.9 ± 0.1$ cm^3
Volume of the nasal cavity, right nostril [42]: 3.0 ± 0.2$ cm^3
Volume of the nasal cavity, left nostril [43]: 2.6 ± 0.1$ cm^3
Volume of the nasal cavity, right nostril [43]: 2.5 ± 0.1$ cm^3
Volume of the nasal cavity, left nostril [44]: 3.7 ± 0.3&$ cm^3
Volume of the nasal cavity, right nostril [44]: 3.8 ± 0.1&$ cm^3
Volume of the nasal cavity, left nostril [45]: 3.8 ± 0.2& cm^3
Volume of the nasal cavity, right nostril [45]: 3.7 ± 0.1&$ cm^3
Volume of the nasal cavity, left nostril [46]: 3.8 ± 0.1&$ cm^3
Volume of the nasal cavity, right nostril [46]: 3.8 ± 0.2&$ cm^3
Volume of the nasal cavity, left nostril [47]: 4.2 ± 0.3& cm^3
Volume of the nasal cavity, right nostril [47]: 4.2 ± 0.3& cm^3
Volume of the nasal cavity, left nostril [48]: 3.9 ± 0.2$ cm^3
Volume of the nasal cavity, right nostril [48]: 4.0 ± 0.3^ cm^3
Volume of the nasal cavity, left nostril [49]: 4.0 ± 0.1$ cm^3
Volume of the nasal cavity, right nostril [49]: 4.2 ± 0.3 cm^3
Volume of the nasal cavity, left nostril [50]: 4.5 ± 0.1 cm^3
Volume of the nasal cavity, right nostril [50]: 4.5 ± 0.3 cm^3
Tolerance (oral once daily for 14 days, dogs): not generated
duration of the effect (single oral administration, dogs): at least 6 hours
